From ChEMBL document CHEMBL4808216, “Gut-Restricted Selective Cyclooxygenase-2 (COX-2) Inhibitors for Chemoprevention of Colorectal Cancer” (J Med Chem, 2021)
≈ marks a conversion by molar mass, not a printed value. Calls of active or inactive are those of the source. No cut-off for these calls is given here.

Columns and labels:
[1] = target: T1, Prostaglandin G/H synthase 2 (Homo sapiens, UniProt P35354); assay: Inhibition of human recombinant COX-2 assessed as reduction in peroxidase activity using arachidonic acid as substrate preincubated for 60 mins followed by substrate addition for 2 secs by ADPH based fluorometric analysis
T1 sequence (P35354 whole entry): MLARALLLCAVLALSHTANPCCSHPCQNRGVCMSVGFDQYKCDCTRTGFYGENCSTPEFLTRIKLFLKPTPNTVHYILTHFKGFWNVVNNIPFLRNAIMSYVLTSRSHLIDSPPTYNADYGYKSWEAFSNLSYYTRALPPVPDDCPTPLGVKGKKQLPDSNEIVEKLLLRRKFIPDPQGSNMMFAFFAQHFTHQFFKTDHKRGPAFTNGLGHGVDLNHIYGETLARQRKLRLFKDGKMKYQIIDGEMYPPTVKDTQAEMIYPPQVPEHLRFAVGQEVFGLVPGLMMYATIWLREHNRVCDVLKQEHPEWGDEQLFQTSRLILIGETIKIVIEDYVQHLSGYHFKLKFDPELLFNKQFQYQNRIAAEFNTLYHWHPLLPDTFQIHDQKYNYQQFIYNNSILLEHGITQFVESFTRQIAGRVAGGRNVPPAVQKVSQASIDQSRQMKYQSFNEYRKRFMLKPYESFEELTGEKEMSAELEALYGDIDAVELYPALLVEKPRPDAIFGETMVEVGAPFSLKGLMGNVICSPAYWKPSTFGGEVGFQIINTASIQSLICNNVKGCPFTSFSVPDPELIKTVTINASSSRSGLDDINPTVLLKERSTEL

[2] = Equilibrium solubility of compound in FASSIF at pH 6.5; format: physicochemical
[3] = Drug metabolism in human hepatocytes assessed as metabolic turnover at 10 uM incubated up to 2 hrs by LC/MS-MS analysis; format: ADME, cell-based, Hepatocyte; conditions: read-out: Drug metabolism
[4] = target: T2, Prostaglandin G/H synthase 1 (Homo sapiens, UniProt P23219); assay: Inhibition of COX1 (unknown origin) expressed in HEK293 TRex cells assessed as reduction in PGE2 production using arachidonic acid as substrate preincubated for 60 mins followed by substrate addition for 1 hr in presence of 10% FBS by RapidFire High-Throughput Mass Spectrometry; format: ADME, cell-based, HEK293-T-REx
[5] = Drug concentration in C57BL/6J mouse colon at 10 mg/kg, po administered as cassette dose measured at 4 hrs by LC/MS/MS analysis; format: ADME, organism-based; conditions: read-out: Ct
[6] = Oral bioavailability in Cynomolgus monkey at 10 mg/kg measured up to 24 hrs by LC-MS analysis; format: ADME, organism-based, Macaca fascicularis; conditions: in vivo
[7] = Half life in human hepatocytes; format: ADME, cell-based, Hepatocyte
[8] = target: T1, Prostaglandin G/H synthase 2; assay: Inhibition of COX2 in human whole blood assessed as reduction in LPS stimulated PGE2 production incubated for 1 hr by ELISA; format: tissue-based
Mus musculus [9] = assay: Antitumor activity in C57BL/6J mouse model of spontaneous GI-tract tumor Apc-min assessed as reduction in total ileum polyp area at 300 mg/kg, po administered as suspension for 10 to 12 weeks; format: functional; conditions: time 10-12 weeks, read-out: TGI
[10] = Ratio of drug concentration in C57BL/6J mouse colon to plasma at 10 mg/kg, po measured after 4 hr by liquid chromatographic triple-quadrupole mass spectrometric method; format: ADME, organism-based; conditions: for Ratio: other tissue, 10 mg/kg, 4 h
[11] = Drug concentration in C57BL/6J mouse plasma at 10 mg/kg, po administered as cassette dose measured at 4 hrs by LC/MS/MS analysis; format: ADME, organism-based
[12] = Tmax in C57BL/6J mouse at 10 mg/kg, po administered as cassette dose measured at 4 hrs by liquid chromatographic triple-quadrupole mass spectrometric method; format: ADME, organism-based; conditions: in vivo
[13] = Half life in mouse hepatocytes; format: ADME, cell-based, Hepatocyte
[14] = Protein binding in human plasma assessed as unbound fraction; format: ADME, cell-free
[15] = Half life in human liver microsomes; format: ADME, Microsome
[16] = Half life in C57BL/6J mouse at 2 mg/kg, iv measured after 0.08 to 24 hrs; format: ADME, organism-based; conditions: in vivo, 2 mg/kg, time 0.08-24 hrs
[17] = Protein binding in human colon assessed as unbound fraction; format: ADME, tissue-based
[18] = Drug concentration in C57BL/6J mouse colon at 10 mg/kg, po administered as cassette dose measured at 2 hrs by liquid chromatographic triple-quadrupole mass spectrometric method; format: ADME, organism-based; conditions: read-out: Ct
Homo sapiens = organism: Homo sapiens; assay: Selectivity ratio of IC50 for COX1 in human whole blood assessed as reduction in calcium ionophore-stimulated TXB2 production to IC50 for COX2 in human whole blood assessed as reduction in LPS stimulated PGE2 production; format: tissue-based
HEK293 = assay: Selectivity ratio of IC50 for COX1 (unknown origin) expressed in HEK293 TRex cells assessed as reduction in PGE2 production to IC50 for COX2 (unknown origin) expressed in HEK293 TRex cells assessed as reduction in PGE2 production; format: cell-based; conditions: Homo sapiens
[19] = target: T1, Prostaglandin G/H synthase 2; assay: Inhibition of COX2 (unknown origin) expressed in HEK293 TRex cells assessed as reduction in PGE2 production using arachidonic acid as substrate preincubated for 60 mins followed by substrate addition for 1 hr in presence of 10% FBS by RapidFire High-Throughput Mass Spectrometry; format: cell-based, HEK293-T-REx
Mus musculus [20] = assay: Chemo-protective activity in C57BL/6J mouse model of spontaneous GI-tract tumor Apc-min assessed as 18F-FDG uptake in ileum at 300 mg/kg, po incorporated into chow diet administered daily for 2 weeks and measured after 14 days by ex vivo PET imaging analysis relative to control; format: functional
[21] = Oral bioavailability in C57BL/6J mouse at 10 mg/kg measured up to 24 hrs by LC-MS analysis; format: ADME, organism-based; conditions: in vivo
[22] = Oral bioavailability in Sprague Dawley rat at 10 mg/kg measured up to 24 hrs by LC-MS analysis; format: ADME, organism-based; conditions: in vivo
[23] = target: T2, Prostaglandin G/H synthase 1; assay: Inhibition of COX1 in human whole blood assessed as reduction in calcium ionophore-stimulated TXB2 production incubated for 1 hr by ELISA; format: tissue-based
[24] = target: T1, Prostaglandin G/H synthase 2; assay: Inhibition of human recombinant COX-2 using arachidonic acid as substrate preincubated for 60 mins followed by substrate addition for 2 secs by ADPH based fluorometric analysis
[25] = Drug concentration in C57BL/6J mouse portal vein plasma at 10 mg/kg, po administered as cassette dose measured at 4 hrs by LC/MS/MS analysis; format: ADME, organism-based
[26] = Oral bioavailability in dog at 10 mg/kg measured up to 24 hrs by LC-MS analysis; format: ADME, organism-based, Canis lupus familiaris; conditions: in vivo
in vivo = conditions: C57BL/6J, mouse, colon / portal vein plasma, po, 10 mg/kg
Description: Ratio of drug concentration in C57BL/6J mouse colon to portal vein plasma at 10 mg/kg, po measured after 4 hr by liquid chromatographic triple-quadrupole mass spectrometric method

[27] = target: T3, Prostaglandin G/H synthase 2 (Homo sapiens) (UniProt P35354)
T3 sequence (whole entry): T1 sequence (P35354 whole entry)
Description: Protein occupancy at human recombinant COX-2 assessed as dissociation half life

[28] = target: T2, Prostaglandin G/H synthase 1; assay: Inhibition of human recombinant COX-1 assessed as reduction in peroxidase activity using arachidonic acid as substrate preincubated for 60 mins followed by substrate addition for 2 secs by ADPH based fluorometric analysis; format: ADME
[29] = Volume of distribution at steady state in C57BL/6J mouse at 2 mg/kg, iv measured after 0.08 to 24 hrs; format: ADME, organism-based; conditions: in vivo, 2 mg/kg, time 0.08-24 hrs
[30] = Drug metabolism in mouse hepatocytes assessed as metabolic turnover at 10 uM incubated up to 2 hrs by LC/MS-MS analysis; format: ADME, cell-based, Hepatocyte
[31] = Half life in mouse liver microsomes; format: ADME, Microsome
[32] = target: T4, Prostaglandin G/H synthase 2 (Mus musculus, UniProt Q05769); assay: In vivo inhibition of COX2 in po dosed C57BL/6J mouse model of spontaneous GI-tract tumor Apc-min assessed as chemopreventive effect by measuring reduction in polyp area and relevant plasma exposures; format: functional, organism-based
T4 sequence (Q05769 whole entry): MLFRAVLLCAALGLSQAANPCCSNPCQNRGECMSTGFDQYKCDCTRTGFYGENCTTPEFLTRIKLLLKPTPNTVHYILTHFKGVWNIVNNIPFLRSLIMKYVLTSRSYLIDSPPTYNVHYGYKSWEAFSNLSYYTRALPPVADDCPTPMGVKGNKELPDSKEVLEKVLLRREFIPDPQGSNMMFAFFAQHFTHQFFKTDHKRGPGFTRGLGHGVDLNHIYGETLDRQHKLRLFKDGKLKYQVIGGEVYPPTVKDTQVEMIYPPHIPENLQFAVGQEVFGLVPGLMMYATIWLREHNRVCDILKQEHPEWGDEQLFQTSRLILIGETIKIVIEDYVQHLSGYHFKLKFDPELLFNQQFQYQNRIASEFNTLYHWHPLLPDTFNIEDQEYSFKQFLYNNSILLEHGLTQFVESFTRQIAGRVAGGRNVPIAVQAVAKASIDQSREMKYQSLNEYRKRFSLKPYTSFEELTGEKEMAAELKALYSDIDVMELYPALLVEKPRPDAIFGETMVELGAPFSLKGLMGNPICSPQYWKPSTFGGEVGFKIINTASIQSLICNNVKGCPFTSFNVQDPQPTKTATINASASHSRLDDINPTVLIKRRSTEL

[33] = target: T4, Prostaglandin G/H synthase 2; assay: In vivo inhibition of COX2 in po dosed C57BL/6J mouse model of spontaneous GI-tract tumor Apc-min assessed as chemopreventive effect by measuring reduction in polyp area and relevant ileum exposures; format: functional, organism-based
Mus musculus [34] = assay: Antitumor activity in C57BL/6J mouse model of spontaneous GI-tract tumor Apc-min assessed as mouse survival at 100 mg/kg, po administered daily as suspension and measured at day 82 by Kaplan-Meier method; format: functional
Mus musculus [35] = assay: Antitumor activity in C57BL/6J mouse model of spontaneous GI-tract tumor Apc-min assessed as reduction in total ileum polyp area at 30 to 300 mg/kg, po administered as suspension for 10 weeks; format: functional, organism-based; conditions: dose 30-300 mg/kg
Mus musculus [36] = assay: Antitumor activity in C57BL/6J mouse model of spontaneous GI-tract tumor Apc-min assessed as reduction in total ileum polyp number at 30 to 300 mg/kg, po administered as suspension for 10 weeks; format: functional, organism-based; conditions: dose 30-300 mg/kg
Mus musculus [37] = assay: Antitumor activity in C57BL/6J mouse model of spontaneous GI-tract tumor Apc-min assessed as change in ileum polyp size at 30 to 300 mg/kg, po administered as suspension for 10 weeks; format: functional; conditions: dose 30-300 mg/kg

T2 sequence (P23219 whole entry): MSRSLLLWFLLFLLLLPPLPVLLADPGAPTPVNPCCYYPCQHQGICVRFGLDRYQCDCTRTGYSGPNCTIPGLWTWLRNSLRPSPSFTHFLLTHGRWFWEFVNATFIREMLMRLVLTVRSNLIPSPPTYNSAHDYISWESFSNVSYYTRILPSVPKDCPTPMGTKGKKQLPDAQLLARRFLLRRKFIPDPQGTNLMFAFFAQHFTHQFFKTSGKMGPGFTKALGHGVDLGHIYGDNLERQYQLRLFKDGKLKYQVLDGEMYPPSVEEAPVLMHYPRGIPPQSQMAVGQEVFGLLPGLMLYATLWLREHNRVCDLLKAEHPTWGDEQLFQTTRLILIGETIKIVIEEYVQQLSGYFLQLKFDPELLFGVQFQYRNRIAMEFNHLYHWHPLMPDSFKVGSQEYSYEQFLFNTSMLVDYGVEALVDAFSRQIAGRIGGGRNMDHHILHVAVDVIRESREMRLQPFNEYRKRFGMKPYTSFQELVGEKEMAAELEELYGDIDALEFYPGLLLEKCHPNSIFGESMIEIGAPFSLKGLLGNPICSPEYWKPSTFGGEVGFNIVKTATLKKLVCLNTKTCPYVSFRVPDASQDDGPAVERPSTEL

Row | Compound | IC50 [1] [nM] | solubility thermodynamic [2] [µM] | IC50 [4] [nM] | concentration at 4 h [5] [ng/g] | IC50 [8] [nM] | inhibition in vivo at 300 mg/kg (Mus musculus [9]) [%] | concentration at 4 h [11] [ng/mL] | fraction unbound [14] | fraction unbound [17] | Ratio IC50 (Homo sapiens) | IC50 [19] [nM] | Activity (Mus musculus [20]) [%] | IC50 [23] [nM] | Ki [24] [nM] | concentration at 4 h [25] [ng/mL] | Kp at 4 h (in vivo) | T1/2 [27] [min] | IC50 [28] [nM] | Ratio [10] | IC50 [32] [nM] | also measured
1 | CCCCOc1nc(OCC(C)(C)O)c(-c2ccc(S(C)(=O)=O)cc2)cc1CO | 226 | 66.5 (≈ 28.2 µg/mL) | 14100 | 4350 | 346 | 35.1 | 3 | 0.009 | 0.025 | > 200 | 47 | 48.9 | > 180000 | 12 | 24.8 | 29.7 | 1080 | > 50000 |  |  | metabolised at 2 h, 10 µM [3]: 100%; bioavailability [6]: 4.87%; half-life [7]: 2.4 min; Kp at 4 h ([10]; C57BL/6J, colon / plasma): 1620; Tmax [12]: 15 min; t1/2 [13]: 1.9 min; half-life [15]: 27.8 min; t1/2 [16]: 13.8 min; concentration at 2 h [18]: 6510 ng/g; Ratio IC50 (HEK293): 300; bioavailability [21]: 4.25%; bioavailability [22]: 1.5%; bioavailability [26]: 74%; Vdss [29]: 4.92 L/kg; Drug metabolism [30]: 79.6%; half-life [31]: 2.7 min
2 | CC(C)(O)COc1nc(OCCCC(F)(F)F)c(CO)cc1-c1ccc(S(C)(=O)=O)cc1 | 360 | 111 (≈ 52.8 µg/mL) | 21800 | 16000 | 345 | 39.8 | 3.8 | 0.011 | 0.204 |  | 78 |  | > 180000 | 12 | 230 | 77 | 1620 | > 50000 | 4473 | 1.9 | IC50 [33]: 160 nM; Survival (Mus musculus [34]): 62.5 days; Ratio (Homo sapiens): > 200; Activity (Mus musculus [35]): Active; Activity (Mus musculus [36]): Active
3 | CC(C)(O)COc1nc(OCCC(F)(F)F)c(CO)cc1-c1ccc(S(C)(=O)=O)cc1 | 500 | 44.4 (≈ 20.6 µg/mL) | 130 | 15500 | 877 | 48.7 | 3.4 | 0.01 | 0.224 | > 200 | 130 | 48.6 | 181000 | 32 | 179 | 101 | 1320 | > 50000 | 5264 | 1.3 | IC50 [33]: 742 nM; Survival (Mus musculus [34]): 74 days; Activity (Mus musculus [35]): Active; Activity (Mus musculus [37]): >2 mm; Activity (Mus musculus [36]): Active
